In the experiment the test system is rats with unilateral 6-hydroxy dopamine-induced lesion of the dopaminergic nigrostriatal patway. The experiment in a line: Turning behaviour in rats: induction of controlateral turnings after a single treatment. Format: in vivo. The text has this:
More in particular, the ergoline derivatives according to the invention are active as antiparkinson agents, owing to their dopaminergic activity. The dopaminergic activity is indicated e.g. by an induction of controlateral turnings in rats with unilateral 6-hydroxy dopamine-induced lesion of the dopaminergic nigrostriatal patway. [According to the principles of N.Ungerstedt et al., Brain Research 24,485 (1970)].

[1] abbreviates: single treatment, 0.5 mg/Kg s.c., in 6 hours.
Where [2] appears, read: single treatment, 0.5 mg/Kg s.c., turning rats / treated rats.

For `CC(C)C[C@H]1C(=O)N2CCC[C@H]2[C@]2(O)O[C@](NC(=O)[C@@H]3C=C4c5cccc6[nH]c(Br)c(c56)C[C@H]4N(C)C3)(C(C)C)C(=O)N12` [Bromocriptine, bromocriptine, reference compound], for the setting “rat, in vivo, sc, 1 mg/kg”, the “Number of controlateral turns (X) in 6 hours” value (shortened to “Number of controlateral turns”) turned out to be 1920 and the “Turning rats Treated rats” value is listed as 6/9.
Consider `CN1C[C@H](CC2CC(=O)NC(=O)C2)C=C2c3cccc4[nH]cc(c34)C[C@H]21` [Example 1, 4-[(6-Methylergolen-Δ9,10-8β-yl)methyl]-piperidin-2,6-dione], for which the “Number of controlateral turns” value under setting [1] worked out at 1540. Under setting [2], the “Turning rats Treated rats” value is 4/4.
With `CN1C(=O)CC(C[C@@H]2C=C3c4cccc5[nH]cc(c45)C[C@H]3N(C)C2)CC1=O` [Example 5, 1-Methyl-4-[(6-methylergolen-Δ9,10-8β-yl)methyl]-piperidin-2,6-dione], the “Number of controlateral turns” value under setting [1] was 1830. For the same compound, the “Turning rats Treated rats” value under setting [2] is 5/5.

Values taken from patent EP0449346B1, “4-Piperidinyl-ergoline derivatives” (PHARMACIA S.p.A., priority 1990, dated 1991).
